Literature values in patent US20100247552A1, “PAK MODULATORS” (MASSACHUSETTS INSTITUTE OF TECHNOLOGY, priority 2006, published 2010).

Experiments:
PAK5 [1] = molecular target: T1, PAK5 (Homo sapiens, UniProt Q9P286); details: 10 μM compound
PAK5 [2] = molecular target: T1, PAK5
PAK6 [3] = molecular target: T2, PAK6 (Homo sapiens, UniProt Q9NQU5); details: 10 μM compound
PAK6 [4] = molecular target: T2, PAK6
PAK4 [5] = molecular target: T3, PAK4 (Homo sapiens, UniProt O96013); details: 10 μM compound
PAK4 [6] = molecular target: T3, PAK4
[7] = solvents
[8] = test system: human cancer cell migration; details: 40 μM; interferes with formation of active Cdc42/Rac1 and PAK complex
PAK = details: probably competitive inhibition of ATP binding; units printed within the value (nM and μM); read-out: IC50 for inhibition of PAK kinase activity

T1 sequence (Q9P286 whole entry): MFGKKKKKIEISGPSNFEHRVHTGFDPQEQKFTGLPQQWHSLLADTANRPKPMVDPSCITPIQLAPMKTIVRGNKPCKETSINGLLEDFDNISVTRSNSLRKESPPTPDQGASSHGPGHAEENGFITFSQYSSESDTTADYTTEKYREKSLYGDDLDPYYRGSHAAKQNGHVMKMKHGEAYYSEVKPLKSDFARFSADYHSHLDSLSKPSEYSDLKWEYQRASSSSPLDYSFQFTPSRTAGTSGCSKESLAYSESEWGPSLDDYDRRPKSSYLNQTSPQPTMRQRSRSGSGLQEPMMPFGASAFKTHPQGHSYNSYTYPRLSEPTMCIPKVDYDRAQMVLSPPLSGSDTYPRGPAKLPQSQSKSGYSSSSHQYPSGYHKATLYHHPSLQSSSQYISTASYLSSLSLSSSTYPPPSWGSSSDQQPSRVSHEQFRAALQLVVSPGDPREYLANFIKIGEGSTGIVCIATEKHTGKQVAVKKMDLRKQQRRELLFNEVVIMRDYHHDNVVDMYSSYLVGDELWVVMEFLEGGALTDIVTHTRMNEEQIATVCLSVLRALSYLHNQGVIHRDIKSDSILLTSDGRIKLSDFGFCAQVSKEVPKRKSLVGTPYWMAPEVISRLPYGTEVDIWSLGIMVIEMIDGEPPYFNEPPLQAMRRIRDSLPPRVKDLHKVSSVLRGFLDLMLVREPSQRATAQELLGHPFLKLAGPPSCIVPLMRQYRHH
T3 sequence (O96013 291-591 limits assumed): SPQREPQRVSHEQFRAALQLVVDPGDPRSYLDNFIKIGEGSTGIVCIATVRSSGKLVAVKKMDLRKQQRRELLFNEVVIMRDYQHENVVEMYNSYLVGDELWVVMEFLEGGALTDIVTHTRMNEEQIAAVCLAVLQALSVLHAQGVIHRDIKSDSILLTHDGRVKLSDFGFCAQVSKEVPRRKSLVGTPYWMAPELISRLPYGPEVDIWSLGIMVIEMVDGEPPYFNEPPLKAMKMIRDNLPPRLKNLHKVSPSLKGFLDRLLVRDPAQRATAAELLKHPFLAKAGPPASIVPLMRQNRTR
T2 sequence (Q9NQU5 whole entry): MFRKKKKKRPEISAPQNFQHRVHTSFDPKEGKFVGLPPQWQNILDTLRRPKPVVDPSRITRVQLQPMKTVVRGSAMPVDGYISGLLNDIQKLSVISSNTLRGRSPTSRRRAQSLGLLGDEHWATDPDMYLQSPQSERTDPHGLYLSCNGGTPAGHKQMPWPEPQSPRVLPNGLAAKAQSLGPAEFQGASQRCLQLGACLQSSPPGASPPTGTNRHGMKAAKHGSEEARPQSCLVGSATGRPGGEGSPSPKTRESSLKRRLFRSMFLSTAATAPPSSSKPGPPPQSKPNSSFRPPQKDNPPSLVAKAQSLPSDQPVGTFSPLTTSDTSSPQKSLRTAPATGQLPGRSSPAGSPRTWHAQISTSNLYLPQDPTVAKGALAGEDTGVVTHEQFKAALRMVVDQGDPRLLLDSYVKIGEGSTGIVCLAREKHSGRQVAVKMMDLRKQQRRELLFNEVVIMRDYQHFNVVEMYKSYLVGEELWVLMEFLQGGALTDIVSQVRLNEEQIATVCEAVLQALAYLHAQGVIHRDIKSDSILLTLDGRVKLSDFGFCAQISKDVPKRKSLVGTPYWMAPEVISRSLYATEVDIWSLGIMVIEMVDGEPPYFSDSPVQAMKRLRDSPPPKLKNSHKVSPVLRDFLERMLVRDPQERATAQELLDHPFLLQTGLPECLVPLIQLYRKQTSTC

SMILES | % Activity at 10 μM PAK5 (PAK5 [1]) [%] | Tm Shift PAK5 (PAK5 [2]) [°C] | % Activity at 10 μM PAK6 (PAK6 [3]) [%] | Tm Shift PAK6 (PAK6 [4]) [°C] | % Activity at 10 μM PAK4 (PAK4 [5]) [%] | Tm Shift PAK4 (PAK4 [6]) [°C] | Solubility [7] | Effect on human cancer cell migration [8] | IC50 (PAK) [nM]
C[C@]12OC(C[C@]1(O)C(=O)O)n1c3ccccc3c3c4c(c5c6ccccc6n2c5c31)CNC4=O [K252a] | 22 | 5.9 ± 0.3 | 16 | 8.6 ± 1.0 | 16 | 4.5 ± 0.3 |  |  | 
CCn1cnc2c(Nc3cccc(Cl)c3)nc(NC3CCCCC3N)nc21 (stereo not drawn) [Cdkl Inhibitor] | 12 | 7.1 ± 0.3 | 23 | 7.0 ± 0.3 | 56 | 7.0 ± 1.5 |  |  | 
Cc1cc(O)c2c(c1)C(=O)c1cc(O)cc(O)c1C2=O [Emodin, 1,3,8-Tri-hydroxy-6-methyl-anthra-quinone] |  |  |  |  |  |  | soluble in DMSO, ethanol, or 1 N dilute aqueous ammonia | inhibits human cancer cell migration | 
NCC(=O)Nc1ccc(-n2nc(C(F)(F)F)cc2-c2ccc3c(ccc4ccccc43)c2)cc1 [OSU-03012, 2-amino-N-{4-[5-(2-phenanthrenyl)-3-(trifluoromethyl)-1H-pyrazol-1-yl]-phenyl}acetamide] |  |  |  |  |  |  | soluble in organic solvents such as DMSO, ethanol, and DMF |  | 500 to 1000
CCN(CC)CCNC(=O)c1c(C)[nH]c(/C=C2\C(=O)Nc3ccc(Cl)cc32)c1C [SU11652] | 43 | 5.3 ± 0.2 | 75 | 5.3 ± 0.3 | 34 | 6.4 ± 1.2 |  |  | 
CN[C@@H]1C[C@H]2O[C@@](C)([C@@H]1OC)n1c3ccccc3c3c4c(c5c6ccccc6n2c5c31)C(=O)NC4 [Staurosporine] | 0 |  | 0 |  |  |  |  |  | 
Nc1nc(Nc2ccc(S(N)(=O)=O)cc2)nn1C(=S)Nc1c(F)cccc1F [Cdk 1/2 Inhibitor III] | 7.0 | 5.6 ± 0.3 | 18 | 5.6 ± 0.8 | 62 | 6.5 ± 0.2 |  |  | 
